Reference: patent publication US20110319338A1, “PEPTIDES THAT BIND EUKARYOTIC TRANSLATION INITIATION FACTOR 4E” (The Board of Regents of the University of Texas System, priority 2008, published 2011)
Like-named read-outs stand apart in the source and are kept apart here.

Columns and labels:
[1] = test system: ES-2-DualLuc cells; assay: Cell-based translation assay with bicistronic R-Luc/F-Luc reporter
Protocol: (§1) FIGS. 2A-2F. Inhibition of cap-dependent translation and cell growth by TAT-4EBP fusion peptides. (FIG. 2A) Representation of the pIRES-DualLuc bicistronic construct containing Renilla Luciferase (R-Luc) and firefly luciferase (F-Luc) genes. In (FIG. 2B), R-Luc and F-Luc activities were assayed in ES-2-DualLuc cells following treatment for 24 hours with rapamycin and for 3 hours with cycloheximide with the indicated concentrations of these drugs, and expressed relative to the respective luciferase activities in cells incubated without drug. Cell viability was not affected by rapamycin and cycloheximide under these conditions. In (FIG. 2C), R-Luc and F-Luc activities were assayed in ES-2-DualLuc cells following treatment for 6 hours with the indicated concentrations of peptides, and expressed relative to the respective luciferase activities in cells incubated without peptide. Shown are results of triplicate assays performed independently two times, and the statistical significance of differences in relative R-Luc and F-Luc activities in cells treated with peptide at a concentration of 10 micromoles per liter. (FIG. 2D) Viability of OVCAR-3 cells at 3 days after addition of the indicated concentrations of peptides, expressed relative to viability of cells incubated without peptide. Shown are results of triplicate assays performed in two independent experiments, and statistical significances of differences in viability of cells treated with TAT-4EBP1-WT vs. TAT-4EBP1-MT, and of cells treated with TAT-4EBP2-WT vs. TAT-4EBP2-MT at a concentration of 10 micromoles per liter. (FIG. 2E) OVCAR-3 cells at 3 days after peptide addition (10 micromoles per liter) viewed under phase-contrast microscopy. (FIG. 2F) Flow cytometric analysis of staining of terminal deoxynucleotidyl transferase-mediated dUTP nick end labeling (TUNEL) in OVCAR-3 cells at 3 days after peptide addition (10 micromoles per liter). Cells incubated for 3 days in the absence of peptide in medium with and without serum are included as controls.
(§2) FIGS. 3A-3H. Uptake, binding and inhibitory effects of [DLys6]GnRH-4EBP fusion peptides. (FIG. 3A) Sequences of [DLys6]GnRH, and wild-type and mutant 4EBP1 peptides fused to the agonist. (FIG. 3B) Western blot of GnRH-RI levels in OVCAR-3, ES-2, MDA-MB-231, BJ, HUVEC and SKOV3 cells. (FIG. 3C) Detection of biotinylated peptides in OVCAR-3 and SKOV3 by Texas Red-conjugated streptavidin at 16 hours after peptide addition (3 micromoles per liter). In (FIGS. 3D and 3E), biotinylated peptides were incubated with OVCAR-3 cell lysate as described in FIG. 1. In (FIG. 3D), peptide was pulled down using streptavidin-agarose. Precipitates (P) and supernatants (S) were analyzed by Western blot using eIF4E antibody. In (FIG. 3E), immunoprecipitation was performed using eIF4E antibody, and Western blot performed using eIF4G antibody. (FIG. 3F) R-Luc and F-Luc activities were assayed in ES-2-DualLuc cells at 6 hours after addition of the indicated concentrations of peptides, and are expressed relative to the respective luciferase activities in cells incubated without peptide. Shown are results of triplicate assays performed independently two times, and the statistical significance of differences in relative R-Luc and F-Luc activities in cells treated with peptide at a concentration of 10 micromoles per liter (FIG. 3G) Cells of GnRH-RI-positive and -negative lines were treated with the indicated concentrations of peptides. Viability at 3 days after peptide addition is expressed relative to viability of cells incubated with no peptide. Shown are results of triplicate assays performed in two independent experiments, and statistical significances of differences in viability of cells treated with wild-type vs. mutant [DLys6]GnRH-4EBP1 peptides at a concentration of 10 micromoles per liter. (FIG. 3H) ES-2 and parental SKOV3 cells at 3 days after peptide addition (30 micromoles per liter) viewed under phase-contrast microscopy. […]

[2] = biological target: T1, eIF4E (Homo sapiens, UniProt P06730); assay: Streptavidin-agarose pull-down of biotinylated peptide from OVCAR-3 cell lysate, Western blot with eIF4E antibody; format: binding; conditions: biotinylated peptide 3 micromoles per liter, 250 micrograms OVCAR-3 cell lysate
T1 construct: endogenous in cells; host or cells: OVCAR-3 cell lysate
T1 sequence (P06730 whole entry): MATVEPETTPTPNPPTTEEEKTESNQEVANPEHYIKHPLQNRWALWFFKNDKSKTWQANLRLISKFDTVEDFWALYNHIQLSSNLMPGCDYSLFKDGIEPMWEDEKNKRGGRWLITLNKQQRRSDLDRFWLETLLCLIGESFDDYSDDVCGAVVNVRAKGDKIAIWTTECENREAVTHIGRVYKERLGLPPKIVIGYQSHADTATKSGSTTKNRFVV
Protocol: (§3) FIGS. 1A-1G. 4EBP peptides bind eIF4E and inhibit binding of eIF4E to eIF4G. (FIG. 1A) Sequences of peptides comprising residues 49 to 68 of 4EBP1 and 4EBP2. (FIG. 1B) Biotinylated peptides (3 micromoles per liter) were incubated with 250 micrograms of OVCAR-3 cell lysate. Peptides were pulled-down using streptavidin-agarose. Precipitates (P) and supernatants (S) were analyzed by Western blot using eIF4E antibody. In (FIG. 1C), immunoprecipitation was performed using eIF4E antibody, and Western blot performed using eIF4G antibody. (FIG. 1D) Sequences of wild-type and mutant 4EBP peptides fused to TAT (mutant residues are highlighted). (FIG. 1E) OVCAR-3 cells were treated with biotinylated peptides (3 micromoles per liter, final concentration) for 16 hours. Internalized peptides were detected by staining fixed cells with Texas Red-conjugated streptavidin. Nuclei were visualized by staining with 4′,6-Diamidino-2-Phenylindole (DAPI). (FIGS. 1F and 1G) OVCAR-3 cell lysates were incubated with peptides as described for FIG. 1B. In (FIG. 1F), immunoprecipitation was performed using streptavidin-agarose and Western blot performed using eIF4E antibody. In (FIG. 1G), immunoprecipitation was performed using eIF4E antibody, and Western blot performed using eIF4G antibody.
as §2, with “peptides.” for “peptides. Viability at 3 days after peptide addition is expressed relative to viability of cells incubated with no peptide. Shown are results of triplicate assays performed in two independent experiments, and statistical significances of differences in viability of cells treated with wild-type vs. mutant [DLys6]GnRH-4EBP1 peptides at a concentration of 10 micromoles per liter. (FIG. 3H) ES-2 and parental SKOV3 cells at 3 days after peptide addition (30 micromoles per liter) viewed under phase-contrast microscopy.”

[3] = biological target: T2, binding of eIF4E to eIF4G (Homo sapiens, UniProt P06730); assay: Immunoprecipitation with eIF4E antibody and Western blot with eIF4G antibody, OVCAR-3 cell lysate incubated with peptide; conditions: peptide 3 micromoles per liter, 250 micrograms OVCAR-3 cell lysate
T2 construct: endogenous in cells; host or cells: OVCAR-3 cell lysate
T2 sequence (P06730 2-217 limits assumed): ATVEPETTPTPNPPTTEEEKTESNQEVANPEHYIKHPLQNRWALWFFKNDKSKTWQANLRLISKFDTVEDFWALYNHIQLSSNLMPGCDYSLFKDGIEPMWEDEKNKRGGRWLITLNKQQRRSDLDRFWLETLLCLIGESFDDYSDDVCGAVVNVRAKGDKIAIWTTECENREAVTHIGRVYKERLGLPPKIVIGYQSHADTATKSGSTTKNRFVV
Protocol: as §3
as §2, with “peptides.” for “peptides. Viability at 3 days after peptide addition is expressed relative to viability of cells incubated with no peptide. Shown are results of triplicate assays performed in two independent experiments, and statistical significances of differences in viability of cells treated with wild-type vs. mutant [DLys6]GnRH-4EBP1 peptides at a concentration of 10 micromoles per liter. (FIG. 3H) ES-2 and parental SKOV3 cells at 3 days after peptide addition (30 micromoles per liter) viewed under phase-contrast microscopy.”

[4] = test system: OVCAR-3 cells; assay: Cell viability assay (crystal violet); format: cell-based; conditions: OVCAR-3, 3 days after peptide addition, 0.3 to 30 micromoles per liter
Protocol: as §1, with “Shown are results of triplicate assays performed in two independent experiments, and statistical significances of differences in viability of cells treated with TAT-4EBP1-WT vs. TAT-4EBP1-MT, and of cells treated with TAT-4EBP2-WT vs. TAT-4EBP2-MT at a concentration of 10 micromoles per liter. (FIG. 2E) OVCAR-3 cells at 3 days after peptide addition (10 micromoles per liter) viewed under phase-contrast microscopy. (FIG. 2F) Flow cytometric analysis of staining of terminal deoxynucleotidyl transferase-mediated dUTP nick end labeling (TUNEL) in OVCAR-3 cells at 3 days after peptide addition (10 micromoles per liter). Cells incubated for 3 days in the absence of peptide in medium with and without serum are included as controls.” left out
FIGS. 3A-3H. […] Precipitates (P) and supernatants (S) were analyzed by Western blot using eIF4E antibody. […]

[5] = rapamycin 24 hours, cycloheximide 3 hours

Row | binding of peptide to eIF4E [2] | inhibition of eIF4E binding to eIF4G [3] | Compound | other results
1 | substantially impaired | substantially impaired | TAT-4EBP1-MT: TAT-4EBP1 fusion peptide in which Tyr-54, Arg-56 and Leu-59 were substituted by Gly (YGRKKRRQRRRGTRIIGDGKFGMECRNSPVT) | –
2 | bound to eIF4E | inhibited eIF4E from binding eIF4G | 4EBP2-WT: peptide containing the region of 4EBP2 corresponding to residues 49-68 of 4EBP1 (GTRIIYDRKFLLDRRNSPMA) | –
3 | substantially impaired | substantially impaired | TAT-4EBP2-MT: TAT-4EBP2 fusion peptide in which Tyr-54, Arg-56 and Leu-59 were substituted by Gly (YGRKKRRQRRRGTRIIGDGKFGLDRRNSPMA) | –

The next lines start with the compound.

Row | Compound | binding of peptide to eIF4E [2] | inhibition of eIF4E binding to eIF4G [3] | other results
4 | C[C@@H]1C[C@@H]([C@H](O)CC2CC(=O)NC(=O)C2)C(=O)[C@@H](C)C1 [cycloheximide] | – | – | cap-dependent translation (R-Luc read-out) [1, 5]: inhibited both cap-dependent and independent translation; cap-independent translation (F-Luc readout) [1, 5]: inhibited both cap-dependent and independent translation; cell viability under translation assay conditions [1, 5]: not affected
5 | CO[C@H]1C[C@@H]2CC[C@@H](C)[C@@](O)(O2)C(=O)C(=O)N2CCCC[C@H]2C(=O)O[C@H]([C@H](C)C[C@@H]2CC[C@@H](O)[C@H](OC)C2)CC(=O)[C@H](C)/C=C(\C)[C@@H](O)[C@@H](OC)C(=O)[C@H](C)C[C@H](C)/C=C/C=C/C=C/1C [rapamycin] | – | – | cell viability under translation assay conditions [1]: not affected
6 | TAT-4EBP2-WT: wild-type 4EBP2 residues fused to cell-penetrating residues of HIV TAT protein (YGRKKRRQRRRGTRIIYDRKFLLDRRNSPMA) | – | – | cap-dependent translation (R-Luc read-out) ([1]; peptide 6 hours, 0.3 to 10 micromoles per liter, relative to cells without peptide): also inhibited cap-dependent translation, but was slightly less effective than TAT-4EBP1-WT; cell viability / growth [4]: decreased cell viability in a dose-dependent manner
